In patent publication US20130310352A1, “DEXAMETHASONE COMBINATION THERAPY” (priority 2010, published 2013):

What was measured:
[1] = tested on: p27 (Kip1) and cyclin D1 in MM cells; assay: Immunoblotting, cell cycle regulators; type: cell-based, human; details: 10 μM compound A
Protocol: (§1) MM cell lines ARP1, ARK, MM.1S, MM.1R and U266 were maintained in RPMI-1640 medium supplemented with 10% fetal bovine serum, 100 U/ml penicillin and 100 μg/ml streptomycin at 37° C. and 5% CO2 Primary MM cells and MM BMSCs were isolated from bone marrow aspirates of myeloma patients. PBMCs were obtained from healthy volunteers. The study was approved by the Institutional Review Board at The University of Texas M.D. Anderson Cancer Center. Anti-caspase-3, caspase-9, PARP, Bim, XIAP, cyclin D1, pp 70S6K (Thr389) and p27(Kip1) antibodies were purchased from Cell Signaling. Anti-bcl-2, Bc1-XL, Akt, pAkt (Thr 308), pAkt (Ser 473), p70S6K and β-actin antibodies were purchased from Santa Cruz. Compound A was dissolved in DMSO at 10 mM as stock solution. Dexamethasone and Propidium iodide (PI) were purchased from Sigma-Aldrich. Recombinant human IL6 was purchased from R&D Systems. FITC conjugated Annexin V was obtained from Invitrogen.
(§2) (A). […] Compound A induced activation and cleavage of caspase-3, caspase-9 and PARP is shown. (B). Same MM cells treated with 10 μM compound A were lysed for western blotting. (C) RP1 cells were treated with 10 μM compound A for 1, 6, 12 and 24 hours.

[2] = tested on: ARP1 cells; assay: Cell cycle analysis (PI, flow cytometry); type: cell-based, human; details: ARP1, 1 μM, 24 hours
Protocol: MM cell lines ARP1, MM.1S and MM.1R were cultured with or without 1 μM compound A for 24 hours. Then, cells were harvested and permeabilized in 70% ethanol at 4° C. for overnight, and incubated with 50 μg/ml PI and 20 μg/ml RNase A for 15 min. DNA content was analyzed by flow cytometry and FlowJo software.
To study the mechanism of compound A induced MM cells growth inhibition and apoptosis, it was examined whether compound A treatment affects MM cell cycle.
(A). Representative histogram of ARP1 treated with 1 μM compound A for 1 day. (B). […] Cell cycle was tested as described.

[3] = tested on: caspase 3, caspase 9 and PARP in ARP1, MM.1S and MM.1R; assay: Western blotting, caspases activation; type: cell-based, human; details: 10 μM
Protocol: as §1
To elucidate compound A induced MM cell apoptosis, MM cell lines ARP1, MM.1S and MM.1R, treated with or without compound A for 24 hours, were assessed by Western blotting analysis.
as §2

[4] = tested on: MM cell lines ARP1, ARK, MM.1S, MM.1R and U266; assay: Annexin V apoptosis assay, MM cell lines; type: cell-based, human
Protocol: Briefly, MM cells were cultured in 24-well plates and treated with 0 to 1 mM final concentrations of compound A for 24 or 72 hours. The cells were washed twice with cold PBS and resuspended in Annexin V binding buffer (Invitrogen). MM cells were stained with FITC-conjugated Annexin V and propidium iodide (PI) for 15 min at room temperature. Apoptotic cells were determined as Annexin V positive cells.
To evaluate the effect of compound A on myeloma cells, MM cell lines ARP1, ARK, MM.1S, MM.1R and U266 were treated with different doses of compound A for 24 hours or 72 hours. Compound A induced MM cells apoptosis were measured as described in Materials and Methods.
Five MM cell lines ARP1, ARK, MM.1S, MM.1R and U266 were cultured in the presence of 0 to 1 mM compound A. Cells were harvested after 1 day or 3 days of treatment. Compound A induced MM cell apoptosis were measured by Annexin V staining as described in Materials and Methods. […] Same MM cell lines were treated with 0 to 1 mM compound A for 1 or 3 days. […] Representative histograms of primary MM cells treated with compound A. (D). […] Cells were treated with different doses of compound A for 1 day.

[5] = tested on: CD138+ primary MM cells; assay: Apoptosis of primary MM cells cocultured with BMSCs ex vivo; type: cell-based, human; details: 10 μM, 24 hours, cocultured 1:1 with BMSCs
Protocol: as §1
Apoptotic cells were determined as Annexin V positive cells.
To evaluate compound A function in primary MM cells, the study was extended to CD138+ primary MM cells freshly isolated from myeloma patients. […]
(A). […] Compound A induced MM cell apoptosis were measured by Annexin V staining as described in Materials and Methods. […] Cell growths were assessed by MTS assay. […]

[6] = tested on: MM cell lines ARP1, MM.1S and MM.1R; assay: Apoptosis with or without IL-6 addition; type: cell-based, human; details: 10 μM compound A, rhIL-6
Protocol: IL-6 is an important survival cytokine for MM (Klein B, Zhang X G, Jourdan M, et al. Interleukin-6 is the central tumor growth factor in vitro and in vivo in multiple myeloma. Eur Cytokine Netw. 1990; 1 (4):193-201; Gado K, Domjan G, Hegyesi H, Falus A. Role of INTERLEUKIN-6 in the pathogenesis of multiple myeloma. Cell Biol Int. 2000; 24 (4):195-209). […] For this purpose, different MM cell lines ARP1, MM.1S and MM.1R were cultured with or without recombinant hIL-6 (final concentration […]) and treated with or without 10 μM compound A for 2 days. As a positive control, MM.1S cells were treated with 40 μg/ml of dexamethasone with or without hIL-6 addition for the same period of time.
(§3) MM cell lines ARP1, MM.1S and MM.1R were cultured with 10 μM compound A for 3 days. rhIL-6 were added to final concentration of 5 ng/ml. As a positive control, MM.1S cells were treated with 40 μg/ml dexamethasone in the presence of 5 ng/ml of rhIL6 for the same time. Cells apoptosis rate was measured by annexin V staining. (B). Same MM cells were co-cultured with or without MM BMSC, and treated with 10 μM of compound A for 1 day. As a positive control, MM.1S cells were cocultured with or without BMSC and treated with 40 μg/ml dexamethasone for 1 day. CD138+ MM cells apoptosis rate was measured by Annexin V staining.

[7] = tested on: MM cell lines ARP1, MM.1S and MM.1R; assay: Apoptosis in coculture with BMSCs; type: cell-based, human; details: 10 μM compound A, 24 hours, BMSC coculture
Protocol: For this purpose, BMSCs isolated from MM patient were cocultured with MM cell lines ARP1, MM.1S and MM.1R. The cells were treated with or without 10 μM of compound A for 24 hours. As a positive control, MM.1S cells were cocultured with or without BMSC and treated with or without 40 μg/ml of dexamethasone for 24 hours. After treatment, the MM cells were identified as CD138+ cells by APC-CD138 staining.
as §3

[8] = tested on: ARK; assay: MTS cell growth assay; type: cell-based; details: Homo sapiens, 24 hours treatment, read-out: IC50 (concentration at 50% inhibition), cell growth
Protocol: as §1
All experiments were performed in triplicate.

[9] = 24 hours, ARP1, MM.1S and MM.1R

## Nc1cc(C(F)(F)F)c(-c2cc(N3CCOCC3)nc(N3CCOCC3)n2)cn1 [compound A, 5-(2,6-di-morpholin-4-yl-pyrimidin-4-yl)-4-trifluoromethyl-pyridin-2-ylamine]
[1]
  cyclin D1 expression: down-regulated
  p27 (Kip1) protein expression: up-regulated
[2]
  G1 phase cells: increased
  S phase cells: decreased
[3]; [9]
  caspase 3 cleavage: cleavage
  caspase 9 cleavage: cleavage
[3]; all tested cell lines
  PARP cleavage: detected
[4]; 0 to 1 mM, 24 hours or 72 hours, Annexin V
  MM cells apoptosis: in both a dose dependent and a time dependent manner
[4]; 24 hours, P<0.05 compared with control
  concentration inducing significant apoptosis in all tested MM cell lines: ≥ 10 µM
[5]
  primary MM cells apoptosis: more than 70%
[6]
  effect of IL6 addition on compound A induced MM cell apoptosis: did not affect
[7]
  effect of BMSCs on compound A induced MM cell apoptosis: did not protect
[8]
  IC50: 1 to 10 µM
